# Experimental data published in the NIST ThermoML archive (doi:10.1016/j.jct.2011.06.020).
# ± gives the expanded uncertainty stated by the source.
# Assay: xn = mol fraction of the nth substance listed
# Settings: for mass density / viscosity: 101 kPa, Liquid; for mass density: Vibrating tube method; for surface tension liquid-gas: Tensiometer with plate; for viscosity: Capillary tube (Ostwald / Ubbelohde) method
structure (smiles),measurement,setting,value
CN1CCNCC1 [N-methylpiperazine] + O,mass density,"313.15 K, x1 = 0.5109",933.18 ± 0.14 kg/m3
same,mass density,"313.15 K, x1 = 0.608",920.04 ± 0.15 kg/m3
same,mass density,"313.15 K, x1 = 0.7065",909.07 ± 0.17 kg/m3
same,mass density,"313.15 K, x1 = 0.8069",900.47 ± 0.19 kg/m3
same,mass density,"313.15 K, x1 = 0.8819",893.54 ± 0.21 kg/m3
same,mass density,"313.15 K, x1 = 1",885.62 ± 0.23 kg/m3
same,surface tension liquid-gas,"318.15 K, x1 = 0.1",43.02 ± 0.13 mN/m
same,surface tension liquid-gas,"318.15 K, x1 = 0.1998",38.31 ± 0.12 mN/m
same,surface tension liquid-gas,"318.15 K, x1 = 0.2994",35.73 ± 0.13 mN/m
same,surface tension liquid-gas,"318.15 K, x1 = 0.4073",33.43 ± 0.13 mN/m
same,surface tension liquid-gas,"318.15 K, x1 = 0.4983",32.08 ± 0.14 mN/m
same,surface tension liquid-gas,"318.15 K, x1 = 0.5934",30.99 ± 0.14 mN/m
same,surface tension liquid-gas,"318.15 K, x1 = 0.6979",30.23 ± 0.15 mN/m
same,surface tension liquid-gas,"318.15 K, x1 = 0.7994",29.83 ± 0.16 mN/m
same,surface tension liquid-gas,"318.15 K, x1 = 0.8978",29.14 ± 0.17 mN/m
same,surface tension liquid-gas,"318.15 K, x1 = 1",28.78 ± 0.18 mN/m
same,surface tension liquid-gas,"323.15 K, x1 = 0.1",41.72 ± 0.13 mN/m
same,surface tension liquid-gas,"323.15 K, x1 = 0.1998",37.83 ± 0.12 mN/m
same,surface tension liquid-gas,"323.15 K, x1 = 0.2994",34.87 ± 0.13 mN/m
same,surface tension liquid-gas,"323.15 K, x1 = 0.4073",32.92 ± 0.13 mN/m
same,surface tension liquid-gas,"323.15 K, x1 = 0.4983",31.67 ± 0.14 mN/m
same,surface tension liquid-gas,"323.15 K, x1 = 0.5934",30.57 ± 0.14 mN/m
same,surface tension liquid-gas,"323.15 K, x1 = 0.6979",29.67 ± 0.15 mN/m
same,surface tension liquid-gas,"323.15 K, x1 = 0.7994",29.24 ± 0.16 mN/m
same,surface tension liquid-gas,"323.15 K, x1 = 0.8978",28.53 ± 0.16 mN/m
same,surface tension liquid-gas,"323.15 K, x1 = 1",28.11 ± 0.17 mN/m
same,viscosity,"325.15 K, x1 = 0.0521",1.5 ± 0.032 mPa·s
same,viscosity,"325.15 K, x1 = 0.0725",2.188 ± 0.048 mPa·s
same,viscosity,"325.15 K, x1 = 0.2091",8.128 ± 0.17 mPa·s
same,viscosity,"325.15 K, x1 = 0.3101",8.263 ± 0.17 mPa·s
same,viscosity,"325.15 K, x1 = 0.5109",4.171 ± 0.087 mPa·s
same,viscosity,"325.15 K, x1 = 0.608",2.876 ± 0.06 mPa·s
same,viscosity,"325.15 K, x1 = 0.7065",2.076 ± 0.044 mPa·s
same,viscosity,"325.15 K, x1 = 0.8069",1.607 ± 0.034 mPa·s
same,viscosity,"325.15 K, x1 = 0.8819",1.324 ± 0.028 mPa·s
same,viscosity,"325.15 K, x1 = 1",1.065 ± 0.023 mPa·s
same,mass density,"325.15 K, x1 = 0.0521",988.47 ± 0.05 kg/m3
same,mass density,"325.15 K, x1 = 0.0725",989.64 ± 0.06 kg/m3
same,mass density,"325.15 K, x1 = 0.1039",990.55 ± 0.07 kg/m3
same,mass density,"325.15 K, x1 = 0.2091",978.98 ± 0.1 kg/m3
same,mass density,"325.15 K, x1 = 0.3101",958.91 ± 0.12 kg/m3
same,mass density,"325.15 K, x1 = 0.4096",940.1 ± 0.13 kg/m3
same,mass density,"325.15 K, x1 = 0.5109",924.16 ± 0.14 kg/m3
same,mass density,"325.15 K, x1 = 0.608",911.05 ± 0.15 kg/m3
same,mass density,"325.15 K, x1 = 0.7065",900.09 ± 0.17 kg/m3
same,mass density,"325.15 K, x1 = 0.8069",891.49 ± 0.19 kg/m3
same,mass density,"325.15 K, x1 = 0.8819",884.6 ± 0.21 kg/m3
same,mass density,"325.15 K, x1 = 1",876.71 ± 0.23 kg/m3
same,surface tension liquid-gas,"333.15 K, x1 = 0.1",39.98 ± 0.13 mN/m
same,surface tension liquid-gas,"333.15 K, x1 = 0.1998",36.47 ± 0.12 mN/m
same,surface tension liquid-gas,"333.15 K, x1 = 0.2994",33.61 ± 0.12 mN/m
same,surface tension liquid-gas,"333.15 K, x1 = 0.4073",31.68 ± 0.13 mN/m
same,surface tension liquid-gas,"333.15 K, x1 = 0.4983",30.32 ± 0.14 mN/m
same,surface tension liquid-gas,"333.15 K, x1 = 0.5934",29.76 ± 0.14 mN/m
same,surface tension liquid-gas,"333.15 K, x1 = 0.6979",28.76 ± 0.15 mN/m
same,surface tension liquid-gas,"333.15 K, x1 = 0.7994",27.93 ± 0.15 mN/m
same,surface tension liquid-gas,"333.15 K, x1 = 0.8978",27.7 ± 0.16 mN/m
same,surface tension liquid-gas,"333.15 K, x1 = 1",27.17 ± 0.17 mN/m
same,viscosity,"333.15 K, x1 = 0.0521",1.18 ± 0.025 mPa·s
same,viscosity,"333.15 K, x1 = 0.0725",1.651 ± 0.036 mPa·s
same,viscosity,"333.15 K, x1 = 0.1039",2.474 ± 0.052 mPa·s
same,viscosity,"333.15 K, x1 = 0.2091",5.188 ± 0.11 mPa·s
same,viscosity,"333.15 K, x1 = 0.3101",5.244 ± 0.11 mPa·s
same,viscosity,"333.15 K, x1 = 0.4096",4.021 ± 0.084 mPa·s
same,viscosity,"333.15 K, x1 = 0.5109",2.894 ± 0.061 mPa·s
same,viscosity,"333.15 K, x1 = 0.608",2.109 ± 0.044 mPa·s
same,viscosity,"333.15 K, x1 = 0.7065",1.592 ± 0.034 mPa·s
same,viscosity,"333.15 K, x1 = 0.8069",1.277 ± 0.027 mPa·s
same,viscosity,"333.15 K, x1 = 0.8819",1.09 ± 0.023 mPa·s
same,viscosity,"333.15 K, x1 = 1",0.9 ± 0.019 mPa·s
same,mass density,"333.15 K, x1 = 0.0521",982.25 ± 0.06 kg/m3
same,mass density,"333.15 K, x1 = 0.0725",982.66 ± 0.06 kg/m3
same,mass density,"333.15 K, x1 = 0.1039",982.5 ± 0.08 kg/m3
same,mass density,"333.15 K, x1 = 0.2091",969.64 ± 0.1 kg/m3
same,mass density,"333.15 K, x1 = 0.3101",949.58 ± 0.12 kg/m3
same,mass density,"333.15 K, x1 = 0.4096",930.91 ± 0.13 kg/m3
same,mass density,"333.15 K, x1 = 0.5109",914.98 ± 0.14 kg/m3
same,mass density,"333.15 K, x1 = 0.608",901.91 ± 0.16 kg/m3
same,mass density,"333.15 K, x1 = 0.7065",891 ± 0.17 kg/m3
same,mass density,"333.15 K, x1 = 0.8069",882.42 ± 0.19 kg/m3
same,mass density,"333.15 K, x1 = 0.8819",875.57 ± 0.21 kg/m3
same,mass density,"333.15 K, x1 = 1",867.73 ± 0.24 kg/m3
same,viscosity,"343.15 K, x1 = 0.0521",0.942 ± 0.02 mPa·s
same,viscosity,"343.15 K, x1 = 0.0725",1.281 ± 0.027 mPa·s
same,viscosity,"343.15 K, x1 = 0.1039",1.827 ± 0.038 mPa·s
same,viscosity,"343.15 K, x1 = 0.2091",3.514 ± 0.073 mPa·s
same,viscosity,"343.15 K, x1 = 0.3101",3.54 ± 0.074 mPa·s
same,viscosity,"343.15 K, x1 = 0.4096",2.81 ± 0.059 mPa·s
same,viscosity,"343.15 K, x1 = 0.5109",2.12 ± 0.044 mPa·s
same,viscosity,"343.15 K, x1 = 0.608",1.607 ± 0.034 mPa·s
same,viscosity,"343.15 K, x1 = 0.7065",1.264 ± 0.027 mPa·s
same,viscosity,"343.15 K, x1 = 0.8069",1.074 ± 0.023 mPa·s
same,viscosity,"343.15 K, x1 = 0.8819",0.906 ± 0.019 mPa·s
same,viscosity,"343.15 K, x1 = 1",0.768 ± 0.016 mPa·s
same,mass density,"343.15 K, x1 = 0.0521",975.55 ± 0.06 kg/m3
same,mass density,"343.15 K, x1 = 0.0725",975.29 ± 0.06 kg/m3
same,mass density,"343.15 K, x1 = 0.1039",974.18 ± 0.08 kg/m3
same,mass density,"343.15 K, x1 = 0.2091",960.1 ± 0.11 kg/m3
same,mass density,"343.15 K, x1 = 0.3101",940.04 ± 0.12 kg/m3
same,mass density,"343.15 K, x1 = 0.4096",921.51 ± 0.13 kg/m3
same,mass density,"343.15 K, x1 = 0.5109",905.65 ± 0.14 kg/m3
same,mass density,"343.15 K, x1 = 0.608",892.65 ± 0.16 kg/m3
same,mass density,"343.15 K, x1 = 0.7065",881.79 ± 0.17 kg/m3
same,mass density,"343.15 K, x1 = 0.8069",873.22 ± 0.19 kg/m3
same,mass density,"343.15 K, x1 = 0.8819",866.45 ± 0.21 kg/m3
same,mass density,"343.15 K, x1 = 1",858.66 ± 0.23 kg/m3
